Results from patent US20260226068A1, “IMIDAZOTRIAZINE IL-17A MODULATORS AND USES THEREOF” (DICE ALPHA, INC., priority 2023, published 2026).

Legend:
[1] = biological target: T1, IL-17A/A (Homo sapiens, UniProt Q16552); assay: IL-17A/A HEK-Blue cell assay (SEAP reporter); format: cell-based; conditions: HEK-Blue IL-17A reporter cells, IL17A/A 5 ng/mL, 20 hours, SEAP read at A630; read-out: HEK-Blue IL17AA (IC50 for IL-17A/A inhibition)
T1 construct: purchased Genscript Z03228
T1 sequence (Q16552 24-155): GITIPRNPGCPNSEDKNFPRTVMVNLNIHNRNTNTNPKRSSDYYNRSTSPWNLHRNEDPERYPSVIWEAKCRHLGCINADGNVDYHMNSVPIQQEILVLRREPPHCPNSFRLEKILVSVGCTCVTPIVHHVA

[2] = biological target: T2, IL-17A/F (Homo sapiens, UniProt Q16552+Q96PD4); assay: IL-17A/F HEK-Blue cell assay (SEAP reporter); format: cell-based; conditions: HEK-Blue IL-17A reporter cells, IL17A/F 5 ng/mL, 20 hours, SEAP read at A630; read-out: HEK-Blue IL17AF (IC50 for IL-17A/F inhibition)
T2 construct: purchased R&D Systems
T2 sequence (Q16552 24-155): T1 sequence (Q16552 24-155)
T2 sequence (Q96PD4 31-163): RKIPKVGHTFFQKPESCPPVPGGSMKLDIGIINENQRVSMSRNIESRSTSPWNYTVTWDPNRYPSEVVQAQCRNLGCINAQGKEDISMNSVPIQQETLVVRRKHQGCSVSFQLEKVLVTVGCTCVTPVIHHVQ

| Structure (SMILES) | IC50 [1] | IC50 [2] |
| --- | --- | --- |
| O=C(N[C@H](c1cn2nc(C[C@H]3C[C@@H](C(F)(F)F)CNC3=O)cnc2n1)C(C1CC1)C1CC1)c1nonc1C1CC1 [Compound 39, 4-cyclopropyl-N—((S)-2,2-dicyclopropyl-1-(2-(((3R,5R)-2-oxo-5-(trifluoromethyl)piperidin-3-yl)methyl)imidazo[1,2-b][1,2,4]triazin-6-yl)ethyl)-1,2,5-oxadiazole-3-carboxamide] | < 100 nM | > 1000 nM |
| CC(C)n1nccc1C(=O)N[C@H](c1cn2nc(C[C@H]3C[C@@H](C(F)(F)F)CNC3=O)cnc2n1)C1CCC(F)(F)CC1 [Compound 34] | < 100 nM | > 1000 nM |
| CCn1nccc1C(=O)N[C@H](c1cn2nc(C[C@H]3C[C@@H](C(F)(F)F)CNC3=O)c(C3CCOC3)nc2n1)C1CCC(F)(F)CC1 (single isomer, unassigned) [Compound 61] | < 100 nM | 100 to 1000 nM |
| CCn1nccc1C(=O)N[C@H](c1cn2nc(CC3C[C@@H](C(F)(F)F)CNC3=O)c(N3CCOCC3)nc2n1)C1CCC(F)(F)CC1 (stereo partly shown) [Compound 47] | < 100 nM | > 1000 nM |
| O=C(N[C@H](c1cn2nc(C[C@H]3C[C@@H](C(F)(F)F)CNC3=O)cnc2n1)C1CCC(F)(F)CC1)c1nonc1C1CC1 [Compound 43] | < 100 nM | > 1000 nM |
| CCn1nccc1C(=O)N[C@H](c1cn2nc(CC3C[C@@H](C(F)(F)F)CNC3=O)c(N3C[C@H]4C[C@@H]3CO4)nc2n1)[C@H]1CC[C@H](C)CC1 (single isomer, unassigned) [Compound 107] | < 100 nM | 100 to 1000 nM |
| CCn1nccc1C(=O)N[C@H](c1cn2nc(C[C@H]3C[C@@H](C(F)(F)F)CNC3=O)c(C3CCOC3)nc2n1)[C@@H]1CCCC(F)(F)C1 (single isomer, unassigned) [Compound 73] | < 100 nM | 100 to 1000 nM |
| O=C(N[C@H](c1cn2nc(C[C@H]3C[C@@H](C(F)(F)F)CNC3=O)c(C3CCOCC3)nc2n1)C1CCC(F)(F)CC1)c1conc1C1CC1(F)F (single isomer, unassigned) [Compound 145] | < 100 nM | 100 to 1000 nM |
| O=C(N[C@H](c1cn2nc(C[C@H]3C[C@@H](C(F)(F)F)CNC3=O)cnc2n1)C1CCC(F)(F)CC1)c1nonc1[C@H]1CC1(F)F (single isomer, unassigned) [Compound 76] | 100 to 1000 nM | > 1000 nM |
| CCn1nccc1C(=O)N[C@H](c1cn2nc(CC3C[C@@H](C(F)(F)F)CNC3=O)c(N3CCOCC3)nc2n1)C(C1CC1)C1CC1 (single isomer, unassigned) [Compound 111] | < 100 nM | 100 to 1000 nM |
| CCn1nccc1C(=O)N[C@H](c1cn2nc(C[C@H]3C[C@@H](C(F)(F)F)CNC3=O)c(N3CCO[C@H](C)C3)nc2n1)[C@H]1CC[C@H](C)CC1 [Compound 157, 1-ethyl-N—((S)-((1r,4S)-4-methylcyclohexyl)(3-((R)-2-methylmorpholino)-2-(((3R,5R)-2-oxo-5-(trifluoromethyl)piperidin-3-yl)methyl)imidazo[1,2-b][1,2,4]triazin-6-yl)methyl)-1H-pyrazole-5-carboxamide] | < 100 nM | < 100 nM |

Further lines, results first:

| IC50 [1] | IC50 [2] | Structure (SMILES) |
| --- | --- | --- |
| < 100 nM | 100 to 1000 nM | CCn1nccc1C(=O)N[C@H](c1cn2nc(C[C@H]3C[C@@H](C(F)(F)F)CNC3=O)c(CN3CCC(F)(F)C3)nc2n1)[C@H]1CC[C@H](C)CC1 [Compound 375, N—((S)-(3-((3,3-difluoropyrrolidin-1-yl)methyl)-2-(((3R,5R)-2-oxo-5-(trifluoromethyl)piperidin-3-yl)methyl)imidazo[1,2-b][1,2,4]triazin-6-yl)((1r,4S)-4-methylcyclohexyl)methyl)-1-ethyl-1H-pyrazole-5-carboxamide] |
| < 100 nM | 100 to 1000 nM | CC(C)c1nc2nc([C@@H](NC(=O)c3ccnn3C)C3CCC(F)(F)CC3)cn2nc1C[C@H]1C[C@@H](C(F)(F)F)CNC1=O [Compound 261, N—((S)-(4,4-difluorocyclohexyl)(3-isopropyl-2-(((3R,5R)-2-oxo-5-(trifluoromethyl)piperidin-3-yl)methyl)imidazo[1,2-b][1,2,4]triazin-6-yl)methyl)-1-methyl-1H-pyrazole-5-carboxamide] |
| < 100 nM | 100 to 1000 nM | CCn1nccc1C(=O)N[C@H](c1cn2nc(C[C@H]3C[C@@H](C(F)(F)F)CNC3=O)c(CN3CCOC[C@H]3C)nc2n1)C1CCC(F)(F)CC1 (single isomer, unassigned) [Compound 231] |
| < 100 nM | 100 to 1000 nM | CCn1nccc1C(=O)N[C@@H](CCC(C)(C)C(F)(F)F)c1cn2nc(C[C@H]3C[C@@H](C(F)(F)F)CNC3=O)c(C3CCOCC3)nc2n1 (single isomer, unassigned) [Compound 160] |
| < 100 nM | > 1000 nM | CCn1nccc1C(=O)N[C@H](c1cn2nc(C[C@H]3C[C@@H](C(F)(F)F)CNC3=O)c(CN3CC4(C3)CC(O)(C(F)(F)F)C4)nc2n1)C1CCC(F)(F)CC1 [Compound 341, N—((S)-(4,4-difluorocyclohexyl)(3-((6-hydroxy-6-(trifluoromethyl)-2-azaspiro[3.3]heptan-2-yl)methyl)-2-(((3R,5R)-2-oxo-5-(trifluoromethyl)piperidin-3-yl)methyl)imidazo[1,2-b][1,2,4]triazin-6-yl)methyl)-1-ethyl-1H-pyrazole-5-carboxamide] |
| < 100 nM | 100 to 1000 nM | CCn1nccc1C(=O)N[C@H](c1cn2nc(C[C@H]3C[C@@H](C(F)(F)F)CNC3=O)c(N3CCC(C)(O)CC3)nc2n1)C1CCC(F)(F)CC1 [Compound 194, N—((S)-(4,4-difluorocyclohexyl)(3-(4-hydroxy-4-methylpiperidin-1-yl)-2-(((3R,5R)-2-oxo-5-(trifluoromethyl)piperidin-3-yl)methyl)imidazo[1,2-b][1,2,4]triazin-6-yl)methyl)-1-ethyl-1H-pyrazole-5-carboxamide] |
| < 100 nM | 100 to 1000 nM | O=C(N[C@H](c1cn2nc(C[C@H]3C[C@@H](C(F)(F)F)CNC3=O)c(C3CCOCC3)nc2n1)C1CCC(F)(F)CC1)OCc1cc(C(F)(F)F)on1 [Compound 183, (5-(trifluoromethyl)isoxazol-3-yl)methyl ((1S)-(4,4-difluorocyclohexyl)(2-(((3R,5R)-2-oxo-5-(trifluoromethyl)piperidin-3-yl)methyl)-3-(tetrahydro-2H-pyran-4-yl)imidazo[1,2-b][1,2,4]triazin-6-yl)methyl)carbamate] |
| 100 to 1000 nM | > 1000 nM | CCn1nccc1C(=O)N[C@H](c1cn2nc(C[C@H]3C[C@@H](C(F)(F)F)CNC3=O)c([C@@H]3CCNC3)nc2n1)C1CCC(F)(F)CC1 [Compound 284, N-((1S)-(4,4-difluorocyclohexyl)(2-(((3R,5R)-2-oxo-5-(trifluoromethyl)piperidin-3-yl)methyl)-3-(pyrrolidin-3-yl)imidazo[1,2-b][1,2,4]triazin-6-yl)methyl)-1-ethyl-1H-pyrazole-5-carboxamide] |
| < 100 nM | 100 to 1000 nM | C[C@H]1CN(c2nc3nc([C@@H](NC(=O)c4ccnn4C)[C@@H]4CCCC(F)(F)C4)cn3nc2C[C@H]2C[C@H](C(F)(F)F)CNC2=O)CCO1 [Compound 310, N—((S)—((R)-3,3-difluorocyclohexyl)(3-((S)-2-methylmorpholino)-2-(((3R,5S)-2-oxo-5-(trifluoromethyl)piperidin-3-yl)methyl)imidazo[1,2-b][1,2,4]triazin-6-yl)methyl)-1-methyl-1H-pyrazole-5-carboxamide] |
| < 100 nM | 100 to 1000 nM | CC(F)(F)c1nocc1C(=O)N[C@H](c1cn2nc(C[C@H]3C[C@@H](C(F)(F)F)CNC3=O)c(C3CCOCC3)nc2n1)C1CCC(F)(F)CC1 [Compound 260, N—((S)-(4,4-difluorocyclohexyl)(2-(((3R,5R)-2-oxo-5-(trifluoromethyl)piperidin-3-yl)methyl)-3-(tetrahydro-2H-pyran-4-yl)imidazo[1,2-b][1,2,4]triazin-6-yl)methyl)-3-(1,1-difluoroethyl)isoxazole-4-carboxamide] |
| < 100 nM | 100 to 1000 nM | CCn1nccc1C(=O)N[C@H](c1cn2nc(C[C@H]3C[C@@H](C(F)(F)F)CNC3=O)c(C3(C)CCCOC3)nc2n1)C1CCC(F)(F)CC1 (single isomer, unassigned) [Compound 165] |
| 100 to 1000 nM | > 1000 nM | CCn1nccc1C(=O)N[C@H](c1cn2nc(CN3C[C@@H](C(F)(F)F)NC3=O)c(C3CCOCC3)nc2n1)C1CCC(F)(F)CC1 [Compound 434] |
| < 100 nM | > 1000 nM | CCn1ncnc1C(=O)N[C@H](c1cn2nc(C[C@@H]3C[C@H](C)CNC3=O)c(C3CCOCC3)nc2n1)C1CCC(F)(F)CC1 [Compound 388] |
| 100 to 1000 nM | 100 to 1000 nM | CCn1nccc1C(=O)N[C@H](c1cn2nc(C[C@H]3C[C@@H](C(F)(F)F)CNC3=O)c(N3CCN(C(=O)OC(C)(C)C)[C@@H](C)C3)nc2n1)C1CCC(F)(F)CC1 [Compound 238, tert-butyl (S)-4-(6-((S)-(4,4-difluorocyclohexyl)(1-ethyl-1H-pyrazole-5-carboxamido)methyl)-2-(((3R,5R)-2-oxo-5-(trifluoromethyl)piperidin-3-yl)methyl)imidazo[1,2-b][1,2,4]triazin-3-yl)-2-methylpiperazine-1-carboxylate] |
| 100 to 1000 nM | > 1000 nM | CCn1nccc1C(=O)N[C@H](c1cn2nc(C[C@H]3C[C@@H](C(F)(F)F)CNC3=O)c(C3COCCN3C)nc2n1)C1CCC(F)(F)CC1 (single isomer, unassigned) [Compound 404] |
